# A melting point compilation (Tetko et al.; mined from patent text by program, amines drawn as free bases though some values may be those of a salt)
row,Structure (SMILES),melting point
1,CC(C)(C)c1cccc(S(=O)(=O)n2c(CCCCC(=O)O)cc3cc(C(F)(F)F)ccc32)c1,135 °C
2,C=Cc1ccccc1OC(C)C(=O)N1CCCC1 (configuration not stated),85 to 86 °C
3,CC1(C)CC(c2ncccn2)c2cc(C#N)ccc2O1 (configuration not stated),109 to 111 °C
4,CCOc1cc(C(=O)c2ccccn2)ccc1OCCOc1c(CC(=O)O)cccc1OC,184 to 186 °C
5,CC(=O)NC(Cc1csc2ccccc12)C(=O)C=Cc1cc(C(F)(F)F)cc(C(F)(F)F)c1 (configuration not stated),172 to 173 °C
6,C=CCOc1ccc(C=CC(=O)c2c(O)cc(OC)cc2OC)cc1,112 °C
7,Cc1cc(Nc2ccccc2C(=O)O)n(C)n1,210 to 211 °C
8,CSc1cc(N)nc(C(N)=O)c1,158 to 159 °C
9,CC(=O)Nc1ccc2oc(=O)[nH]c2c1,295 to 300 °C
10,CC(=O)Nc1cccc(OCCCCC(=O)O)c1C=O,119 to 121 °C
11,C#CC1(OC(C)=O)C(COC(=O)c2ccc(Cl)cc2)OC(n2ccc(=O)[nH]c2=O)C1OC(C)=O (configuration not stated),218 to 219 °C
12,"CN(C)CCCC(=O)N1CCC(C2c3ncc(Br)cc3CCc3cc(Cl)cc(Br)c32)CC1 (single isomer, unassigned; (+))",78 to 80 °C
13,COc1ccn2nc(-c3ccccc3F)c(-c3ccc(=O)n(C(C)C)n3)c2c1,174 to 175 °C
14,COc1ccc(O)c(C2(OC)Sc3ccccc3N(C)C2=O)c1 (configuration not stated),135 to 136 °C
15,Cc1nc(Cl)c(S(C)(=O)=O)c(Cl)n1,146 to 147 °C
16,Cc1c(-c2ccccc2)nc2ccccc2c1C(=O)N[C@@H](C)C1CCCCC1,177 to 180 °C
17,CN(Cc1ccccc1)C1CCN(c2c(F)cc([N+](=O)[O-])c(F)c2CCl)C1 (configuration not stated),94 to 98 °C
18,COc1c(O)c(C=O)cc2ccoc12,60 to 62 °C
19,O=Cc1ccc(C#Cc2ccc(Cl)cc2)cc1,123 °C
20,N#Cc1nn(-c2c(Cl)cc(OC(F)(F)F)cc2Cl)c(N)c1I,150 °C
21,CCN1CCN(C(C(=O)N(C)CCO)c2ccc(Nc3nc(-c4cccc(NC(=O)c5cc6c(s5)CCCCC6)c4C)cn(C)c3=O)cc2)CC1 (configuration not stated),163 to 165 °C

row,Structure (SMILES),melting point
1,CCOC(=O)N1CCc2nc3ccc(N)cc3c(C)c2CC1,214 to 216 °C
2,COc1ccc(C(O)CN2CCNC2=O)cc1OC (configuration not stated),166 °C
3,CCC(O)c1ccccc1-c1ccc(C(=O)N2Cc3ccc(C(=O)NCc4cccnc4)n3Cc3ccccc32)cc1 (configuration not stated),111 to 115 °C
4,O=c1[nH]nccc1-c1ccccc1,216 to 219 °C
5,CCN1CCN(c2ccc([N+](=O)[O-])cc2OC)CC1,84 to 85 °C
6,CC(C(=O)c1ccc(OC2CCCCO2)cc1)c1ccccc1 (configuration not stated),94 to 96 °C
7,CS(=O)(=O)Nc1ccc(C(=O)NC(=O)N2CCC(Cc3ccc(F)cc3)CC2)cc1,221 to 222 °C
8,Cc1ccc(S(=O)(=O)OCC2COc3ccc4nc(C)c(C)nc4c3O2)cc1 (configuration not stated),153 to 155 °C
9,CC(C)n1cc(C(=O)NCc2ccc(Cl)cc2)c(=O)c2cc(CCCO)sc21,84 to 92 °C
10,NC(=O)c1c(Cl)c(-c2ccccc2)n2c1CN(C(=O)Nc1cccc(C(=O)O)c1)CC2,263 to 265 °C
11,COc1ccc2c(c1)-c1nn(CCO)c3cccc(c13)N2,275 to 276 °C
12,O=C1N(Cc2ccccc2)OCCN1c1ccc(Cl)c(Cl)c1,76 °C
13,C1=C(CCc2c[nH]c3ccccc23)CCNC1,155 °C
14,COC(=O)c1c(C(=O)OC)c(-c2ccc(F)c(F)c2)n2c1Cc1ccccc1C2,142 to 144 °C
15,CC(C)(C=C(Br)Br)C(=O)Nc1ccc(Cl)cc1,104 °C
16,CC(O)=C(C(=O)OCC(Cl)(Cl)Cl)N1C(=O)C(NC(=O)COc2ccccc2)C1SSc1nc2ccccc2s1 (configuration not stated),129 to 130 °C
17,CC(O)C=CS(C)(=O)=O (configuration not stated),70 to 72 °C
18,COc1ccccc1N1CCN(CCCCN2CCN(c3cccc(Cl)c3)C2=O)CC1,87 to 89 °C
19,Cc1oc(-c2cccs2)nc1COc1ccc(CCCCn2ccnc2)cc1,85 to 86 °C
20,COC(=O)c1sc2c(c1O)CCCC2,55 to 58 °C

# Second part, the compound after the results:
row,melting point,Structure (SMILES)
1,150 to 151 °C,N#Cc1ccc2[nH]nc(-c3ccccc3)c2c1
2,206 to 207 °C,COc1cccc(OCCF)c1-c1ccc(C[C@H](NC(=O)c2c(Cl)cccc2Cl)C(=O)O)cc1
3,54.5 to 55 °C,Cc1ccc(N=C2SCS2)cc1
4,72 to 73 °C,Cc1cccc(C=Cc2ccncc2)n1
5,106 to 107 °C,CC(=S)OC1CCN(C(=O)OCc2ccc([N+](=O)[O-])cc2)CC1
6,65 to 68 °C,c1ccc(CSc2ccccc2Cn2cncn2)cc1
7,116 to 117 °C,CSc1ccc(NC(=O)CN2CCN(CCSc3nc4ccccc4o3)CC2)c(C)n1
8,246 to 249 °C,COc1cccc(Cc2ccc(-c3cnn4c(O)ccnc34)cc2)c1
9,77 to 78 °C,C[C@@H]1Cc2ccccc2O[C@H]1c1ccccc1 (relative stereo)
10,136 to 138 °C,CC1=C(C(=O)OC(C)C)C(c2cccc([N+](=O)[O-])c2)C(S(=O)(=O)N(C)C)=C(C)N1 (configuration not stated)
11,108 °C,CC(=O)c1ccccc1-c1noc2ccccc12
12,218 to 220 °C,O=C(NC(CO)(CO)CO)c1cc2ccnc(Cl)c2[nH]1
13,156 to 158 °C,COc1ccc2c(=O)c(-c3ccccc3)coc2c1
14,233 to 234 °C,CCCc1nc(N)nc(O)c1I
15,91 to 95 °C,N#Cc1cccc(S)c1
16,94 to 95 °C,CCOC(=O)CCC(=O)c1ccc(Cl)c(S(N)(=O)=O)c1
17,175 to 181 °C,Cn1c(-c2ccccc2)c2ccsc2nc1=O
18,195 to 197 °C,Cn1cc(C(=O)NCc2ccc(Cl)cc2)c(=O)c2cccc(C#CCCO)c21
19,198 to 200 °C,CN1CCN(c2cccc3ccc(Nc4ncccc4N)cc23)CC1
20,223 to 225 °C,Clc1cc2nc(NC3CC3)[nH]c2cc1Cl
21,154 to 155 °C,Cc1ccc(-c2ccccc2)c(NC(=N)N2CCOCC2)c1

row,melting point,Structure (SMILES)
1,166 to 169 °C,Cn1c(=O)c2c(Cl)cc(Cl)cc2n(Cc2ccccc2)c1=O
2,210 to 213 °C,CC(C)(C)NS(=O)(=O)c1cc(C(=O)O)ccc1C(=O)O
3,167 to 170 °C,CC(C)OC(=O)N1CCC(c2nc3cc(-c4ccc(C=O)cc4)ccc3o2)CC1
4,136 °C,C#CCOc1cc(Oc2cc(Cl)cc(Cl)c2)ncn1
5,133 to 135 °C,Fc1cc(C(F)(F)F)ccc1/C=C/c1nc(COc2ccc(-c3nc(Cn4ccnc4)cs3)cc2)co1
6,190 to 194 °C,CCCCc1nc2c(N)nc3ccc(OCc4ccccc4)cc3c2n1CCCCNC(=O)Nc1ccccc1
7,133 °C,COCCOCOc1c(C(C)(C)C)cc(C(=N)NN)cc1C(C)(C)C
8,200 to 212 °C,O=C(Nc1ccc(F)cc1)NN1CC=C(c2ccccc2)CC1
9,203 to 205 °C,N#CCc1ccc(C(=O)c2ccc(Cl)cc2)[nH]1
10,206 to 207 °C,Cc1c(-c2ccncn2)nc2n(c1=O)CCCN2
11,136 to 138 °C,COc1ccc(-n2nc(Cl)cc2-c2ccc(OCCO)cc2)cn1
12,59 to 61 °C,CCOC(=O)CCc1cc(OC)ccc1C(=O)CCCNC(C)=O
13,128 to 130 °C,COc1cc(OCC(O)CN2CCN(c3ccccc3NC(C)=O)CC2)cc(OC)c1OC (configuration not stated)
14,157 °C,CCC1(CC(=O)O)OCCc2c1[nH]c1c(OCC(F)(F)F)c(Cl)ccc21 (configuration not stated)
15,> 250 °C,CC(C)c1cccc2[nH]c(C(=O)O)cc(=O)c12
16,157 to 158 °C,CCCc1nc2c(N)nc(C)c(C)c2n1CCCCCCS(C)(=O)=O
17,216 to 217 °C,O=c1[nH]cc(Cc2cccnc2)cc1[N+](=O)[O-]
18,> 270 °C,O=C(O)COc1cc2c(=O)cc(C(=O)O)[nH]c2ccc1=O
19,194 °C,C=NOC(C(=O)O)c1cccc(NC(=O)NCC(=O)N2C(c3ccccc3)CCC2c2ccccc2)c1 (configuration not stated)
20,86 to 87.5 °C,OC(COCCCl)c1ccc2cc(OCc3ccccc3)ccc2c1 (configuration not stated)
21,88 to 90 °C,CC1(C)C2CC[C@]1(C)C(=O)C(C(=O)Nc1ccc(Cl)c(Cl)c1)C2=O (some centres not stated)

row,melting point,Structure (SMILES)
1,> 300 °C,COc1ccc(-c2sc3ncc(CO)c(O)c3c2C)cc1
2,290 to 294 °C,Oc1cc2c3cc(O)c(O)cc3n(Cc3cccnc3)c2cc1O
3,174 °C,O=C(Nc1ccc(N2CCCC2=O)cc1)OCc1ccccc1
4,202 to 204 °C,COc1cc(Nc2nc(-c3ccc(Cl)cc3)cc(C(F)(F)F)n2)ccc1-n1cnc(C)c1
5,130 to 132 °C,COc1ccc(N2C(=O)C(OC(C)=O)C2c2ccccc2Cl)cc1 (configuration not stated)
6,334 to 335 °C,NC(=O)c1nc(-c2cccnc2)nc2c1[nH]c(=O)n2Cc1ccccc1
7,94 to 96 °C,O=C(CCCCCNC(=O)[C@H](Cc1c[nH]c2ccccc12)NC(=O)CCCc1c[nH]c2ccccc12)NO
8,136 to 139 °C,NS(=O)(=O)CC(=O)c1ccc(Cl)cc1Cl
9,106 to 107 °C,CCOC(=O)C1(C(=O)OCC)N(Cc2ccc(OC)cc2OC)C(=O)CC1(C)O (configuration not stated)
10,82 to 86 °C,C#CCn1c(-c2cccc(C=O)c2)nc(CC)c(CC)c1=O
11,190 to 193 °C,COc1cc2ncc(C#N)c(Nc3cccc(C(F)(F)F)c3)c2cc1OC
12,181 to 190 °C,CN1CCN(CCO)Cc2ccc(Nc3ncc(Cl)c(N[C@@H]4CCCC[C@H]4NS(C)(=O)=O)n3)cc21
13,190 to 192 °C,CCC(CC)Oc1cc(C)nc2c1COCN2c1c(C)cc(Cl)cc1C
14,128 to 130 °C,O=C1N[C@@H](C(=O)N2C[C@H](O)C[C@H]2C(=O)O)CCCCCC[C@@H]1CS
15,100 °C,COc1cc2c(cc1Nc1ncc(Cl)c(Nc3ccccc3S(=O)(=O)C(C)C)n1)CCN(CC(=O)N1CCOCC1)CC2
16,61 to 62 °C,CCCCCC(C)(O)C=CC1CCC(=O)C1CCCCCCC(=O)O (configuration not stated)
17,110 to 113 °C,Cc1cc(CC#N)cc(Cc2nc3c(F)c(F)cc(F)c3s2)c1
18,62 to 63.5 °C,COc1ccc(C(C)CC(=O)N2C(=O)OCC2C(C)C)cc1 (configuration not stated)
19,106 to 107 °C,CS(=O)(=O)c1ccc(C(CC2CCCC2)C(=O)Nc2nccs2)cc1Br (configuration not stated)
